Measured values reported in PMC4055736, “Functional Characterization of a Novel Family of Acetylcholine-Gated Chloride Channels in Schistosoma mansoni” (PLoS Pathogens, 2014).

Legend:
Assay type in all cases: cell-based
[1] = target: T1, SmACC-1 (Schistosoma mansoni, UniProt V5WAE7); experiment: YFP halide sensor iodide flux assay in transfected HEK-293 cells; block of […] nicotine response by […] antagonist
T1 construct: gene ACC-1; full-length, human codon-optimized, C-terminal FLAG tag; homomeric channel
T1 sequence (V5WAE7 24-804): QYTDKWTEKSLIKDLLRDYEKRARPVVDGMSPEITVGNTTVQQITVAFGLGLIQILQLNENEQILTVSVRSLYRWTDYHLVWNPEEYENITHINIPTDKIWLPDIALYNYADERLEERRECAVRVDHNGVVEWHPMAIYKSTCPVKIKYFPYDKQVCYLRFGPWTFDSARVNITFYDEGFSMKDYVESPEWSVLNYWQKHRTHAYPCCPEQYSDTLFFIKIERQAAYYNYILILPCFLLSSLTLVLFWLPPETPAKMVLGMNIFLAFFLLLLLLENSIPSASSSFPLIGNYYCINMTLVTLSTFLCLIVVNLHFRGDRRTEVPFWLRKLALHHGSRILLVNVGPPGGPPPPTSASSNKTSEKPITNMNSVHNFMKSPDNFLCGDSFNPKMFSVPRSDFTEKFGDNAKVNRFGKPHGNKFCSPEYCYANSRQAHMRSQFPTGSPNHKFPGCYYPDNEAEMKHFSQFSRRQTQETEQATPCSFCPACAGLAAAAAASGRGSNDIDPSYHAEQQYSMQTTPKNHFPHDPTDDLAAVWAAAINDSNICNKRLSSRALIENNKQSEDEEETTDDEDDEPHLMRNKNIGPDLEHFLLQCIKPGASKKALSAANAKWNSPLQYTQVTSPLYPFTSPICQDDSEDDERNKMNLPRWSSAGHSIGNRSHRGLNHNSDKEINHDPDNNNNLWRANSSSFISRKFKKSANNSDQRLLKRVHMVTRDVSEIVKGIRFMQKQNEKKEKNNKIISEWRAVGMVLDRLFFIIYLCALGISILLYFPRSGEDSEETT

[2] = target: T1, SmACC-1; experiment: YFP halide sensor iodide flux assay in transfected HEK-293 cells, […] agonist
[3] = target: T1, SmACC-1; experiment: YFP halide sensor iodide flux assay in transfected HEK-293 cells, dose response (agonist)

Row | Compound | YFP halide sensor iodide flux assay in transfected HEK-293 cells, 100 μM agonist [2] | also measured
1 | COc1cc2c3cc1Oc1cc(ccc1O)C[C@@H]1c4c(cc(OC)c(O)c4Oc4ccc(cc4)C[C@@H]3N(C)CC2)CC[N+]1(C)C [D-tubocurarine] |  | YFP halide sensor iodide flux assay in transfected HEK-293 cells; block of 100 μ [1]: only D-tubocurarine was able to significantly block the activation of SmACC-1 by nicotine
2 | COC(=O)C1=CCCN(C)C1 [arecoline] | statistically significant responses were also seen with other cholinergic agonists (ACh, choline chloride, carbachol and arecoline) | 
3 | C[N+](C)(C)CCOC(N)=O [carbachol] | statistically significant responses were also seen with other cholinergic agonists (ACh, choline chloride, carbachol and arecoline) | 
4 | C[N+](C)(C)CCO [choline] | statistically significant responses were also seen with other cholinergic agonists (ACh, choline chloride, carbachol and arecoline) | 
5 | CN1CCC[C@H]1c1cccnc1 [nicotine] |  | EC50 [3]: 4.3 ± 1.4 µM
